Reference: patent publication US6737383B1, “Herbicidal oxadiazolidines” (priority 1999, dated 2004)

How the values were obtained:
[1] = test system: surinam grass; assay: Test B pre/postemergence surinam grass; assay type: in vivo, Brachiaria decumbens
Outline: (§1)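 Herbicidal effect was estimated by eye on a ten-point control scale after plants spent twelve to sixteen days in a greenhouse following soil or foliar treatment. Foliar sprays targeted plants at one to four leaves; all doses were formulated in a non-phytotoxic solvent with surfactant.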

[2] = test system: cocklebur; assay: Test B pre/postemergence cocklebur; assay type: in vivo, Xanthium strumarium
Outline: as §1

[3] = test system: corn; assay: Test B pre/postemergence corn; assay type: in vivo, Zea mays
Outline: as §1

[4] = test system: crabgrass; assay: Test B pre/postemergence crabgrass; assay type: in vivo, Digitaria sanguinalis
Outline: as §1

[5] = test system: giant foxtail; assay: Test B pre/postemergence giant foxtail; assay type: in vivo, Setaria faberii
Outline: as §1

[6] = test system: morningglory; assay: Test B pre/postemergence morningglory; assay type: in vivo, Ipomoea hederacea
Outline: as §1

[7] = test system: pigweed; assay: Test B pre/postemergence pigweed; assay type: in vivo, Amaranthus retroflexus
Outline: as §1

[8] = test system: rape; assay: Test B pre/postemergence rape; assay type: in vivo, Brassica napus
Outline: as §1

[9] = test system: sugar beet; assay: Test B pre/postemergence sugar beet; assay type: in vivo, Beta vulgaris
Outline: as §1

[10] = test system: wheat; assay: Test B pre/postemergence wheat; assay type: in vivo, Triticum aestivum
Outline: as §1

[11] = test system: wild oat; assay: Test B pre/postemergence wild oat; assay type: in vivo, Avena fatua
Outline: as §1

[12] = test system: purple nutsedge; assay: Test B pre/postemergence purple nutsedge; assay type: in vivo, Cyperus rotundus
Outline: as §1

[13] = test system: rice; assay: Test B flood test rice; assay type: in vivo, Oryza sativa
Outline: (§2)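 Each value is a visual injury score relative to controls, with 10 meaning complete control and 0 no effect. Evaluation took place twelve to sixteen days after the 2-leaf-stage plants were treated and kept in the greenhouse.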

[14] = test system: smallflower flatsedge; assay: Test B flood test smallflower flatsedge; assay type: in vivo, Cyperus difformis
Outline: as §2

[15] = test system: duck salad; assay: Test B flood test duck salad; assay type: in vivo, Heteranthera limosa
Outline: as §2

[16] = test system: bamyardgrass; assay: Test B flood test barnyardgrass; assay type: in vivo, Echinochloa crus-galli
Outline: as §2

[17] = Postemergence, Rate 62 g/ha, scale of 0 to 10, 0 is no effect, 10 is complete control
[18] = Postemergence, Rate 125 g/ha, scale 0 to 10, 0 is no effect, 10 is complete control
[19] = Postemergence, Rate 500 g/ha, scale 0 to 10, 0 is no effect, 10 is complete control
[20] = Preemergence, Rate 62 g/ha, scale of 0 to 10 where 0 is no effect and 10 is complete control
[21] = Preemergence, Rate 125 g/ha, scale 0 to 10, 0 is no effect, 10 is complete control
[22] = Rate 250 g/ha, Postemergence, scale of 0 to 10 where 0 is no effect and 10 is complete control
[23] = Preemergence, Rate 500 g/ha, scale of 0 to 10 where 0 is no effect and 10 is complete control
[24] = Rate 62 g/ha, flood test species, Pre-emergence, visual evaluation after twelve to sixteen days
[25] = Rate 125 g/ha, under heading Pre-emergence, flood test species, visual evaluation after twelve to sixteen days
[26] = Rate 250 g/ha, Pre-emergence (flood test species), scale 0 to 10, 0 is no effect, 10 is complete control
[27] = Rate 500 g/ha, Pre-emergence section of Table B, 0 to 10 scale (0 no effect, 10 complete control)

## CC(C)N(C(=O)n1oc(=O)n(CC2CCC2)c1=O)c1ccc(F)cc1F [Compound 521]
[1]; [17]
  B. signalgrass plant response rating: 0
[1]; [18]
  B. signalgrass plant response rating: 0
[1]; [19]
  Plant response rating, B. signalgrass: 3
[1]; [20]
  Plant response rating, B. signalgrass: 0
[1]; [21]
  B. signalgrass plant response rating: 0
[1]; Preemergence, Rate 250 g/ha
  B. signalgrass plant response rating (0 to 10 scale, 0 is no effect, 10 is complete control): 0
[1]; Preemergence, Rate 500 g/ha, scale 0 to 10, 0 is no effect, 10 is complete control
  B. signalgrass plant response rating: 9
[1]; [22]
  Plant response rating, B. signalgrass: 0
[2]; [17]
  Cocklebur plant response rating: 0
[2]; [18]
  Cocklebur plant response rating: 0
[2]; [19]
  Plant response rating, Cocklebur: 0
[2]; [20]
  Plant response rating, Cocklebur: 0
[2]; [21]
  Cocklebur plant response rating: 0
[2]; Preemergence, Rate 250 g/ha
  Cocklebur plant response rating (0 to 10 scale): 0
[2]; [23]
  Cocklebur plant response rating: 0
[2]; [22]
  Plant response rating, Cocklebur: 0
[3]; [17]
  Corn plant response rating: 0
[3]; [18]
  Corn plant response rating: 0
[3]; [19]
  Plant response rating, Corn: 0
[3]; [20]
  Plant response rating, Corn: 0
[3]; [21]
  Corn plant response rating: 0
[3]; Preemergence, Rate 250 g/ha
  Corn plant response rating (0 to 10 scale): 0
[3]; [23]
  Corn plant response rating: 3
[3]; [22]
  Plant response rating, Corn: 0
[4]; [17]
  Crabgrass plant response rating: 2
[4]; [18]
  Crabgrass plant response rating: 4
[4]; [19]
  Plant response rating, Crabgrass: 10
[4]; [20]
  Plant response rating, Crabgrass: 10
[4]; [21]
  Crabgrass plant response rating: 10
[4]; Preemergence, Rate 250 g/ha
  Crabgrass plant response rating (0 to 10 scale): 10
[4]; [23]
  Crabgrass plant response rating: 10
[4]; [22]
  Plant response rating, Crabgrass: 10
[5]; [17]
  Giant foxtail plant response rating: 4
[5]; [18]
  Giant foxtail plant response rating: 8
[5]; [19]
  Plant response rating, Giant foxtail: 9
[5]; [20]
  Plant response rating, Giant foxtail: 10
[5]; [21]
  Giant foxtail plant response rating: 10
[5]; Preemergence, Rate 250 g/ha
  Giant foxtail plant response rating (0 to 10 scale): 10
[5]; [23]
  Giant foxtail plant response rating: 10
[5]; [22]
  Plant response rating, Giant foxtail: 9
[6]; [17]
  Morningglory plant response rating: 3
[6]; [18]
  Morningglory plant response rating: 4
[6]; [19]
  Plant response rating, Morningglory: 5
[6]; [20]
  Plant response rating, Morningglory: 0
[6]; [21]
  Morningglory plant response rating: 0
[6]; Preemergence, Rate 250 g/ha
  Morningglory plant response rating (0 to 10 scale): 0
[6]; [23]
  Morningglory plant response rating: 0
[6]; [22]
  Plant response rating, Morningglory: 3
[7]; [17]
  Redroot pigweed plant response rating: 0
[7]; [18]
  Redroot pigweed plant response rating: 0
[7]; [19]
  Plant response rating, Redroot pigweed: 4
[7]; [20]
  Plant response rating, Redroot pigweed: 0
[7]; [21]
  Redroot pigweed plant response rating: 0
[7]; Preemergence, Rate 250 g/ha
  Redroot pigweed plant response rating (0 to 10 scale): 0
[7]; [23]
  Redroot pigweed plant response rating: 0
[7]; [22]
  Plant response rating, Redroot pigweed: 0
[8]; [17]
  Rape plant response rating: 0
[8]; [18]
  Rape plant response rating: 0
[8]; [19]
  Plant response rating, Rape: 3
[8]; [20]
  Plant response rating, Rape: 0
[8]; [21]
  Rape plant response rating: 0
[8]; Preemergence, Rate 250 g/ha
  Rape plant response rating (0 to 10 scale): 2
[8]; [23]
  Rape plant response rating: 2
[8]; [22]
  Plant response rating, Rape: 2
[9]; [17]
  Sugarbeets plant response rating: 0
[9]; [18]
  Sugarbeets plant response rating: 0
[9]; [19]
  Plant response rating, Sugarbeets: 4
[9]; [20]
  Plant response rating, Sugarbeets: 0
[9]; [21]
  Sugarbeets plant response rating: 0
[9]; Preemergence, Rate 250 g/ha
  Sugarbeets plant response rating (0 to 10 scale): 3
[9]; [23]
  Sugarbeets plant response rating: 3
[9]; [22]
  Plant response rating, Sugarbeets: 0
[10]; [17]
  Wheat plant response rating: 0
[10]; [18]
  Wheat plant response rating: 0
[10]; [19]
  Plant response rating, Wheat: 2
[10]; [20]
  Plant response rating, Wheat: 0
[10]; [21]
  Wheat plant response rating: 0
[10]; Preemergence, Rate 250 g/ha
  Wheat plant response rating (0 to 10 scale): 0
[10]; [23]
  Wheat plant response rating: 0
[10]; [22]
  Plant response rating, Wheat: 0
[11]; [17]
  Wild oats plant response rating: 0
[11]; [18]
  Wild oats plant response rating: 0
[11]; [19]
  Plant response rating, Wild oats: 2
[11]; [20]
  Plant response rating, Wild oats: 0
[11]; [21]
  Wild oats plant response rating: 0
[11]; Preemergence, Rate 250 g/ha
  Wild oats plant response rating (0 to 10 scale): 0
[11]; [23]
  Wild oats plant response rating: 2
[11]; [22]
  Plant response rating, Wild oats: 0
[12]; [17]
  Nutsedge plant response rating: 0
[12]; [18]
  Nutsedge plant response rating: 0
[12]; [19]
  Plant response rating, Nutsedge: 0
[12]; [20]
  Plant response rating, Nutsedge: 0
[12]; [21]
  Nutsedge plant response rating: 0
[12]; Preemergence, Rate 250 g/ha
  Nutsedge plant response rating (0 to 10 scale): 0
[12]; [23]
  Nutsedge plant response rating: 0
[12]; [22]
  Plant response rating, Nutsedge: 0
[13]; [24]
  Plant response rating, Rice (0 to 10 scale, 0 is no effect, 10 is complete control): 0
[13]; [25]
  Rice plant response rating (0 to 10 scale, 0 is no effect, 10 is complete control): 0
[13]; [26]
  Rice plant response rating: 0
[13]; [27]
  Rice plant response rating: 0
[14]; [24]
  Plant response rating, S. Flatsedge (0 to 10 scale, 0 is no effect, 10 is complete control): 0
[14]; [25]
  S. Flatsedge plant response rating (0 to 10 scale, 0 is no effect, 10 is complete control): 0
[14]; [26]
  S. Flatsedge plant response rating: 0
[14]; [27]
  S. Flatsedge plant response rating: 0
[15]; [24]
  Plant response rating, Ducksalad (0 to 10 scale, 0 is no effect, 10 is complete control): 0
[15]; [25]
  Ducksalad plant response rating (0 to 10 scale, 0 is no effect, 10 is complete control): 0
[15]; [26]
  Ducksalad plant response rating: 0
[15]; [27]
  Ducksalad plant response rating: 0
[16]; [24]
  Plant response rating, Barnyardgrass (0 to 10 scale, 0 is no effect, 10 is complete control): 0
[16]; [25]
  Barnyardgrass plant response rating (0 to 10 scale, 0 is no effect, 10 is complete control): 0
[16]; [26]
  Barnyardgrass plant response rating: 0
[16]; [27]
  Barnyardgrass plant response rating: 0
